Data on 14 compounds can be found in patent publication US20210002231A1 (Centre National de la Recherche Scientifique, priority 2018, published 2021).

The target of assay [1] is T1, human MOPr (Homo sapiens, UniProt P35372). Nature of the assay: BRET1 β-arrestin-2 recruitment assay.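 For Emax: Emax relative to maximal DAMGO-induced BRET as 100%.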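 For MOPr (β-arrestin-2) Emax: Emax relative to maximal DAMGO-induced BRET as 100%.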 The assay is classed as cell-based. Conditions: for Emax: read-out: MOPr (β-arrestin-2) Emax; for β-arrestin-2 recruitment: in words. The arrangement: expressed in transfected cells; host or cells: HEK293 cells stably expressing eYFP-β-arrestin-2, transiently transfected with the Rluc8-MOP plasmid. As for the experimental part: Peak response amplitudes were normalized to basal and maximal (cells permeabilized with 20 μM digitonin) fluorescence levels. 1.8. β-Arrestin-2 recruitment assay The β-arrestin-2 recruitment assay was performed as described [34; 45] with minor modifications. Briefly, two days prior the experiment, HEK293 cells stably expressing eYFP-tagged β-arrestin-2 were transfected with the plasmid encoding Rluc8-MOP receptor. β-Arrestin-2 recruitment was measured at 37° C. in presence of 5 μM Coelenterazine H, 5 min after agonist addition.
T1 sequence (P35372 whole entry): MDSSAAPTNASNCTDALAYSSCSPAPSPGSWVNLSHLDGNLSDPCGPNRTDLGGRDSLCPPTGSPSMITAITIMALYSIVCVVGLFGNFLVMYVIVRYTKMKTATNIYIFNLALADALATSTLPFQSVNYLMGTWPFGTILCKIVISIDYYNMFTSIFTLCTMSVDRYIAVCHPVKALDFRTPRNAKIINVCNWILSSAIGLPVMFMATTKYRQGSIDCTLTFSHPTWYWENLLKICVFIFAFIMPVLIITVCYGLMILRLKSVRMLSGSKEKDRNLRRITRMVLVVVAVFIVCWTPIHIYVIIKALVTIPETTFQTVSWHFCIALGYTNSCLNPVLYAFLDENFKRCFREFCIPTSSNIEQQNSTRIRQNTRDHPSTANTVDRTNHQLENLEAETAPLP

For assay [2], the target named is T1, human MOPr. As to the kind of experiment: cell-based. The class given is cell-based. The arrangement: expressed in transfected cells; HEK293-Glo20F cells (cAMP). Conditions: for Emax: read-out: MOPr (cAMP) Emax; for MOPr-induced G protein activation: in words. As for the experimental part:
Stimulation by endogenous RF-amide peptides or test compounds for [^35S]-GTPγS binding to membranes from CHO cells expressing human NPFF1R or NPFF2R, were examined as reported. 1.6. Glo-Sensor cAMP Assay cAMP accumulation assay was essentially done as described with the following modifications: HEK293 cells stably expressing cAMP Glosensor-20F were used, with or without additional stable expression of each individual opioid receptor or NPFF1R. The cAMP responses were measured in presence of D-luciferin (1 mM).

The mark [3] stands for this setting: Table 3B, read-out: MOPr (cAMP) EC50.
[4] abbreviates: Table 3B, — = non-detectable recruitment, read-out: MOPr (β-arrestin-2) EC50.

Starred links: 1 amine or outer side, 2 acyl side, 3 side chain; linkers in the order of their positions; H or OH if unused. Non-standard residues stand in square brackets, D forms with d. Residues, ends and D or L forms follow the SMILES beside them. Nva(5-(4-Bn-piperidin-1-yl)) = N[C@@H](CCCN1CCC(Cc2ccccc2)CC1)C(=O)O; X5 = O=C1[C@@H](N[*:1])Cc2ccccc2CN1CCCC(=O)[*:2]; X1 = O=C1[C@@H](N[*:1])Cc2ccccc2CN1CCC(=O)[*:2]; Tic(7-OH) = O=C(O)[C@@H]1Cc2ccc(O)cc2CN1; Dmt = Cc1cc(O)cc(C)c1C[C@H](N)C(=O)O; d(hArg) = N=C(N)NCCCC[C@@H](N)C(=O)O; dOrn = NCCC[C@@H](N)C(=O)O; dNMeA = CN[C@H](C)C(=O)O; Nlys = NCCCCNCC(=O)O; βAla = NCCC(=O)O A value given as a limit tells only on which side of the number the result lay.
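Throughout, for MOPr (cAMP) Emax: Emax relative to DAMGO as 100%.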

For `Cc1cc(O)cc(C)c1C[C@H](N)C(=O)N[C@H](CCCNC(=N)N)C(=O)N[C@H]1Cc2ccccc2CN(CCC(=O)N[C@@H](CCCN2CCc3ccccc3C2)C(=O)N[C@@H](Cc2ccccc2)C(N)=O)C1=O` [DP0026, H-Dmt-D-Arg-Aba-β-Ala-THIQ-Phe-NH2], the Emax at human MOPr [1] was about 50%; at human MOPr [2], 98%. Moreover, the EC50 at human MOPr [2] (setting [3]) was 2.4 nM.

As for `Cc1cc(O)cc(C)c1C[C@H](N)C(=O)N[C@H](CCCNC(=N)N)C(=O)N[C@@H](Cc1ccccc1)C(=O)N(C)CC(=O)N[C@@H](CCCN1CCC(Cc2ccccc2)CC1)C(=O)N[C@@H](Cc1ccccc1)C(N)=O` [DP0024, H-Dmt-D-Arg-Phe-N(Me)Gly-Bpa-Phe-NH2] (HELM PEPTIDE1{[Cc1cc(O)cc(C)c1C[C@H](N)C(=O)[*:2]].[dR].F.[Sar].[O=C([C@H](CCCN1CCC(Cc2ccccc2)CC1)N[*:1])[*:2]].F.[am]}$$$$V2.0), the EC50 is about 50 nM at human MOPr [1] (setting [4]) and 9.9 nM at human MOPr [2] (setting [3]). The Emax on human MOPr [1] is about 95%; on human MOPr [2], 97%.

In the case of `Cc1cc(O)cc(C)c1C[C@H](N)C(=O)N[C@H](CCCNC(=N)N)C(=O)N[C@H]1Cc2ccccc2CN(CCC(=O)N[C@H](CCCN2CCC(Cc3ccccc3)CC2)C(=O)N[C@@H](Cc2ccccc2)C(N)=O)C1=O` [DP0027, H-Dmt-D-Arg-Aba-β-Ala-D-Bpa-Phe-NH2], the 50% effective concentration (EC50) was about 180 nM on human MOPr [1] (setting [4]) and 13.6 nM at human MOPr [2] (setting [3]). For the same compound, the figures for the Emax at human MOPr [1] and on human MOPr [2] were about 68% and 95%, respectively.

Regarding `Cc1cc(O)cc(C)c1C[C@H](N)C(=O)N[C@H](CCCNC(=N)N)C(=O)N[C@H]1Cc2ccccc2CN(CCC(=O)N[C@@H](CCCN2CCC(Cc3ccccc3)CC2)C(=O)N[C@@H](Cc2ccccc2)C(=O)NCCC(N)=O)C1=O` [DP0016, H-Dmt-D-Arg-Aba-β-Ala-Bpa-Phe-β-Ala-NH2] (H-[Dmt][dR][X1][Nva(5-(4-Bn-piperidin-1-yl))]F[βAla]-NH2), the EC50 was 399 nM on human MOPr [1] (setting [4]) and 19 nM on human MOPr [2] (setting [3]). Besides, the Emax came to 31% at human MOPr [1] and 95% at human MOPr [2].

For `Cc1cc(O)cc(C)c1C[C@H](N)C(=O)N[C@H](CCCN1CCC(Cc2ccccc2)CC1)C(=O)N[C@H]1Cc2ccccc2CN(CCC(=O)N[C@@H](CCCN2CCC(Cc3ccccc3)CC2)C(=O)N[C@@H](Cc2ccccc2)C(N)=O)C1=O` [DP0009, H-Dmt-D-Bpa-Aba-β-Ala-Bpa-Phe-NH2], the EC50 at human MOPr [2] (setting [3]) came out at 800 nM. In addition, on human MOPr [2], the Emax came out at 35%.

With `N=C(N)NCCC[C@@H](NC(=O)[C@@H]1Cc2ccc(O)cc2CN1)C(=O)N[C@H]1Cc2ccccc2CN(CCC(=O)N[C@@H](CCCN2CCC(Cc3ccccc3)CC2)C(=O)N[C@@H](Cc2ccccc2)C(N)=O)C1=O` [DP0031, 7-OH-Tic-D-Arg-Aba-β-Ala-Bpa-Phe-NH2] (H-[Tic(7-OH)][dR][X1][Nva(5-(4-Bn-piperidin-1-yl))]F-NH2; N-terminus assumed), the EC50 on human MOPr [1] was over 500 nM; at human MOPr [2] (setting [3]), 3600 nM. The results for the Emax at human MOPr [1] and at human MOPr [2] were about 40% and 46%, respectively.

On to `Cc1cc(O)cc(C)c1C[C@H](N)C(=O)N[C@H](CCCNC(=N)N)C(=O)N[C@H]1Cc2ccccc2CN(CCC(=O)N[C@@H](CCCN2CCC(Cc3ccccc3)CC2)C(=O)N[C@H](Cc2ccccc2)C(N)=O)C1=O` [DP0015, H-Dmt-D-Arg-Aba-β-Ala-Bpa-D-Phe-NH2], for which the EC50 on human MOPr [1] (setting [4]) came to 80 nM; on human MOPr [2] (setting [3]) it was 5.9 ± 0.3 nM. For the same compound, the maximal response (Emax) on human MOPr [1] turned out to be 59%; at human MOPr [2] it was 109 ± 0.4%.

Turning to `Cc1cc(O)cc(C)c1C[C@H](N)C(=O)N(C)[C@H](C)C(=O)N[C@H]1Cc2ccccc2CN(CCCC(=O)N[C@@H](CCCN2CCC(Cc3ccccc3)CC2)C(=O)N[C@@H](Cc2ccccc2)C(N)=O)C1=O` [DP0017, H-Dmt-N(Me)-D-Ala-AbaGABA-Bpa-Phe-NH2] (H-[Dmt][dNMeA][X5][Nva(5-(4-Bn-piperidin-1-yl))]F-NH2), on human MOPr [1], the β-arrestin-2 recruitment entry is recorded as “non-detectable”. In addition, the EC50 on human MOPr [2] (setting [3]) came to 14.1 nM. On human MOPr [2], the “MOPr-induced G protein activation” value is “significant” and the Emax was 70%.

Take `Cc1cc(O)cc(C)c1C[C@H](N)C(=O)N[C@H](CCCNC(=N)N)C(=O)N[C@H]1Cc2c(ccc3ccccc23)CN(CC(=O)N[C@@H](CCCN2CCC(Cc3ccccc3)CC2)C(=O)N[C@@H](Cc2c[nH]c3ccccc23)C(N)=O)C1=O` [DP0023, H-Dmt-D-Arg-1AnaGly-Bpa-Trp-NH2]: the β-arrestin-2 recruitment result on human MOPr [1] is listed as “non-detectable”. The same compound returned an EC50 on human MOPr [2] (MOPr (cAMP) EC50, Table 3B) of 9.1 nM. For the same compound, at human MOPr [2], the “MOPr-induced G protein activation” value is “significant” and the Emax amounted to 61%.

Take `Cc1cc(O)cc(C)c1C[C@H](N)C(=O)N(C)[C@H](C)C(=O)N[C@H]1Cc2ccccc2CN(CCC(=O)N[C@@H](CCCN2CCC(Cc3ccccc3)CC2)C(=O)N[C@@H](Cc2ccccc2)C(N)=O)C1=O` [DP0007, H-Dmt-N(Me)-D-Ala-Aba-β-Ala-Bpa-Phe-NH2] (H-[Dmt][dNMeA][X1][Nva(5-(4-Bn-piperidin-1-yl))]F-NH2): the EC50 at human MOPr [1] (setting [4]) came out at 214 nM; at human MOPr [2] (setting [3]) it was 40 ± 20 nM. The figures for the maximal response (Emax) on human MOPr [1] and on human MOPr [2] were 12% and 64 ± 6%, respectively.

Turning to `Cc1cc(O)cc(C)c1C[C@H](N)C(=O)N(CCCCN)CC(=O)N[C@H]1Cc2ccccc2CN(CCC(=O)N[C@@H](CCCN2CCC(Cc3ccccc3)CC2)C(=O)N[C@@H](Cc2ccccc2)C(N)=O)C1=O` [DP0035, H-Dmt-Nlys-Aba-β-Ala-Bpa-Phe-NH2] (H-[Dmt][Nlys][X1][Nva(5-(4-Bn-piperidin-1-yl))]F-NH2), at human MOPr [2] (setting [3]), the EC50 was 48.4 nM. For the same compound, the maximal effect (Emax) at human MOPr [2] was found to be 15%.

For the compound `Cc1cc(O)cc(C)c1C[C@H](NC(=N)N)C(=O)N[C@H](CCCNC(=N)N)C(=O)N[C@H]1Cc2ccccc2CN(CCC(=O)N[C@@H](CCCN2CCC(Cc3ccccc3)CC2)C(=O)N[C@@H](Cc2ccccc2)C(N)=O)C1=O` [DP0032, Guanidyl-Dmt-D-Arg-Aba-β-Ala-Bpa-Phe-NH2], on human MOPr [1], the β-arrestin-2 recruitment result was “non-detectable”. The same compound showed an EC50 at human MOPr [2] (MOPr (cAMP) EC50, Table 3B) of 12.6 nM. At human MOPr [2], the “MOPr-induced G protein activation” value is “significant” and the Emax worked out at 63%.

For the compound `Cc1cc(O)cc(C)c1C[C@H](N)C(=O)N[C@H](CCCN)C(=O)N[C@H]1Cc2ccccc2CN(CCC(=O)N[C@@H](CCCN2CCC(Cc3ccccc3)CC2)C(=O)N[C@@H](Cc2ccccc2)C(N)=O)C1=O` [DP0028, H-Dmt-D-Orn-Aba-β-Ala-Bpa-Phe-NH2] (H-[Dmt][dOrn][X1][Nva(5-(4-Bn-piperidin-1-yl))]F-NH2), the β-arrestin-2 recruitment result at human MOPr [1] is recorded as “non-detectable”. The EC50 at human MOPr [2] (setting [3]) was determined as 40.4 nM. Moreover, at human MOPr [2], the “MOPr-induced G protein activation” value is “significant” and the Emax was 75%.

As to `Cc1cc(O)cc(C)c1C[C@H](N)C(=O)N[C@H](CCCCNC(=N)N)C(=O)N[C@H]1Cc2ccccc2CN(CCC(=O)N[C@@H](CCCN2CCC(Cc3ccccc3)CC2)C(=O)N[C@@H](Cc2ccccc2)C(N)=O)C1=O` [DP0033, H-Dmt-D-hArg-Aba-β-Ala-Bpa-Phe-NH2] (H-[Dmt][d(hArg)][X1][Nva(5-(4-Bn-piperidin-1-yl))]F-NH2), on human MOPr [1], the β-arrestin-2 recruitment result is “non-detectable”. Further, at human MOPr [2] (setting [3]), the EC50 amounted to 24.9 nM. Further, on human MOPr [2], the “MOPr-induced G protein activation” value is on record as “significant” and the Emax was 41%.
